Results published in patent US20260117184A1, “SYSTEM AND METHOD TO DIRECT THE DIFFERENTIATION OF PLURIPOTENT STEM CELL-DERIVED ODONTOBLASTS” (UNIVERSITY OF WASHINGTON, priority 2022, published 2026).

Test system: hiPSC derived odontoblast cells (iOB)
Test: qPCR of odontoblast markers (Example 2)
Type: cell-based, human
Conditions: iOB bFGF (100 ng/mL, 14 days) compared to conventional odontoblast differentiation method (OB)
Experimental: This project applies the DPSC derived to odontoblast protocol previously described by the lab (30), modified for hiPSC and to reflect the full signaling pathway activities as detected by the sci-RNA-seq analysis (FIG. 11A; FIGS. 15B and 15C). […] Odontogenic medium was supplemented with 50 ng/mL BMP4 (Stemcell Technologies 78211) for 7 days followed by 25 ng/mL BMP4 (Stemcell Technologies 78211) and 400 nM SAG (Stemcell Technologies 73412) for 7 days (iOB); 100 ng/mL C6 (1,2) for 14 days (iOB C6); 100 ng/mL C6 for 7 days followed by 100 ng/mL mb7 (31,32) for 7 days (iOB C6 to mb7); or 100 ng/mL recombinant basic FGF (Gibco 13256-029) for 14 days (iOB bFGF). […]
To analyze gene expression, cells were dissociated and lysed with Trizol (Life Technology) with cell pellets stored at −80° C. RNA purification is performed via TURBO DNA-Free™ Kit (Invitrogen) or Aurum™ Total RNA Mini Kit (Bio-Rad), purity and concentration quantification via Nanodrop ND-1000 (Thermo Fisher Scientific). cDNA synthesis via iScript™ cDNA Synthesis Kit (Bio-Rad) or Applied Biosystems™ High-Capacity cDNA Reverse Transcription Kit (Thermo Fisher Scientific), and qPCR performed using oligonucleotide primers for neural crest and odontoblast markers (Table 3), SYBR Green reporter (Applied Biosystems) and 7300 Real-Time PCR System (Applied Biosystems). […]

“bFGF: recombinant basic FGF (Gibco 13256-029)” was tested, and the “DSPP and DMP1 expression” value was “increased DSPP and DMP1 expression”.
